Measurements taken from patent US8124381B2, “Process and materials for production of glucosamine and N-acetylglucosamine” (Arkion Life Sciences, priority 2002, dated 2012).

Columns and labels:
[1] = biological target: E. coli GlmS mutant GlmS*110 (Escherichia coli, UniProt P17169); assay: GlmS inhibition and Michaelis-Menten kinetics; type: biochemical; conditions: read-out: Km (fructose-6-P)
Method: (§1) Different glucosamine synthetase enzymes, including native B. subtillus GlmS, native E. coli GlmS and mutant E. coli GlmS, were studied in vitro. Cells of various E. coli strains were grown in the M9A medium, harvested, and frozen. Cells extracts were prepared and the glucosamine synthetases were characterized and compared.
(§2) Enzyme sensitivities to the reaction product glucosamine-6-P were examined. […] This figure highlights the dramatic difference between the wild type GlmS and these mutant GlmS strains.
(§3) The Mutants 2123-54 and the B. subtilis enzyme have higher Ki values (Table 6). Measured Ki constants for several of these mutants are 4 to 8 times the value for the native enzyme in strain 2123-12. From shake flask studies it is apparent that decreased sensitivity to glucosamine-6-P allows higher glucosamine levels to accumulate.
(§4) These values are slightly higher than those obtained with the native enzyme.

[2] = biological target: E. coli GlmS mutant GlmS*69 (Escherichia coli, UniProt P17169); assay: GlmS inhibition and Michaelis-Menten kinetics; type: biochemical; conditions: read-out: Km (fructose-6-P)
Method: as §1, §2, §3, §4

[3] = biological target: E. coli glucosamine synthase GlmS*54, SEQ ID NO:6 (Ala39Thr, Arg250Cys, Gly472Ser) (Escherichia coli, UniProt P17169, A39T/G472S/R250C); assay: Effects of phosphorylated sugars on glucosamine synthase, crude extract of lactose-induced 7107-18 cells; type: biochemical; conditions: 10 mM or relatively high concentration
Method: Glucosamine synthetase activity was examined in the presence of various phosphorylated sugars. Crude enzyme extracts was prepared from cells of 7017-18 grown in shake flasks for 24 hours with lactose induction.

[4] = Degradation in hydrochloric acid at 90-100 C based on ammonia formation; type: physicochemical; conditions: 5% and 10% glucosamine hydrochloride, 12% and 20% hydrochloric acid, 90 C, 1-24 hours
Method: Glucosamine degradation was examined at 90° C. and 100° C. using 5% and 10% glucosamine hydrochloride (w/w) with 12% and 20% hydrochloric acid by weight. Samples were incubated from 1-24 hours and assayed enzymatically for ammonia using glutamate dehydrogenase. […] Glucosamine degradation is based on ammonia formation.
N-acetylglucosamine was hydrolyzed to glucosamine at 90° C. using the hybridization oven. The reaction was carried out inside a screw capped glass tube. The 30% hydrochloric acid (30 g) was preincubated at 90° C. for 1 hour. After this 10 g solid N-acetylglucosamine was added, quickly dissolved, and a To sample taken. Samples were taken at 30-minute intervals over the next three hours. […] Samples were analyzed for ammonia enzymatically.

[5] = Glucosamine stability under acid/heat hydrolysis conditions; type: physicochemical; conditions: for glucosamine stability with heating: 10 g/l in M9A, 100 C
Method: In the first experiment N-acetylglucosamine (10 g/l in […] medium without glucose) was hydrolyzed at 100° C. with various levels of hydrochloric acid. In a parallel experiment, glucosamine was subjected to the same treatments to determine its stability under hydrolysis conditions. Conversion of N-acetylglucosamine to glucosamine was determined by monitoring the amount of glucosamine generated by the hydrolysis reaction. Glucosamine was determined by an HPLC method based on that described by Way et al. (Journal of Liquid Chromatography and Related Technologies, 23:2861, 2000). Some specific details of the HPLC method are given below: column: […] Both the amount of remaining N-acetylglucosamine and the amount of formed glucosamine were monitored. N-acetylglucosamine was measured by HPLC using a standard carbohydrate system. Some specific details are given below: column: […] Glucosamine was measured using the ion pair HPLC column as described above. […] At 100° C. conversion was complete by 2.5 hours. […] At lower temperatures, some hydrolysis was observed, but this was much slower. […] Acid hydrolysis of N-acetylglucosamine at 90° C. was performed. […] A series of 12-ml glass screw capped tubes with Teflon lined caps were employed. Each tube represented a separate time point (0, 15, 30, 45, 60, 90 minutes) and contained 2 ml of the N-acetylglucosamine/hydrochloric acid solution. Tubes were heated in a heating block equilibrated at 90° C. Tubes were removed at appropriate times and quick cooled in ice water. Appropriate dilutions were made in and samples analyzed by HPLC for glucosamine and N-acetylglucosamine. […] Kinetics of N-acetylglucosamine disappearance were essentially the same for all four solutions. Hydrolysis is very rapid at 90° C. […] No N-acetylglucosamine was detected at 60 or 90 minutes. After 1 hour at 90° C., N-acetylglucosamine was no longer detected even with 20% N-acetylglucosamine.

[6] = Glucosamine stability in cell-free M9A medium; type: physicochemical; conditions: for loss of glucosamine: 60 g l-1, cell-free M9A-glucose, 30 C, 52 hours; for glucosamine degradation: cell-free M9A + 40 g l-1 glucose
Method: Glucosamine stability was tested in cell-free M9A medium (14 g l^−1 K2HPO4, 16 g l^−1 KH2PO4, 1 g l^−1 Na3citrate.2H2O, 5 g l^−1 (NH4)2SO4, 1 mM MgSO4, 1 mM CaCl2, pH 7.0) supplemented with 40 g l^−1 glucose. Glucosamine was prepared as a 30% glucosamine-HCl concentrated solution and was added to final concentrations of 0, 4, 13, 26 and 42 g l^−1 (50 ml total in 250-ml flask). The pH of the medium was adjusted to pH 6.9. Flasks were placed on a shaker and agitated at about 225 rpm. Glucosamine levels and pH were monitored at 30° C. for about 24 hours. […] The degradation was only about 25% when the starting glucosamine concentration was 4 g l^−1. Glucosamine degradation was accompanied by a decline of pH in the medium. In the 42 g l^−1 glucosamine sample the pH in the medium was lowered by 0.7 units (from 6.9 to 6.2) after a 24-hr period, as compared to a pH change of only about 0.15 units in medium without glucosamine.
The breakdown of glucosamine (60 g l^−1) at four starting pH levels was monitored at 30° C. in cell-free M9A-glucose (40 g l^−1) for 52 hours. At each sampling time, the solutions were readjusted to their original pH. Each condition was run in triplicate. […] The loss of glucosamine was 68% at pH 7.0 as compared to 18% at pH 5.5.
To test the involvement of the aldehyde group, degradation was monitored in M9A medium containing 30 g l^−1 glucosamine with and without 40 g l^−1 glucose. If the aldehyde group is involved, the presence of glucose would affect the rate of glucosamine degradation/polymerization.

[7] = tested on: E. coli 7107-18
Method: Batches of M9A medium with 40 g l^−1 glucose and 20 g 1-1 GlcN were adjusted to five different pHs. One set of flasks was immediately inoculated with 7107-18 cells. Replicate flasks of the same media were incubated without cells for 10 hours, before inoculation. Seven times over 48 hours, flasks were sampled to measure pH, OD600, and GlcN concentration. At each sample point, the pH of the culture was readjusted back to the initial settings.
Glucosamine is vital for E. coli growth since it is a precursor for the synthesis of important cell wall components. E. coli is also capable of using Glucosamine and N-acetylglucosamine as the sole carbon source. The catabolism of the amino sugars requires a functional glucosamine deaminase encoded by the nagB gene, which was deleted in strain 7107-18. […] Experiments were carried out to investigate if glucosamine affects E. coli 7107-18 cell growth and survival in medium containing 40 g l^−1 glucose.

[8] = Stability of glucosamine in stored culture supernatant samples; type: physicochemical
Method: Shake flask culture samples were assayed by both the HPLC method and the colorimetric methods. The culture supernatants were obtained by centrifugation and filtration to remove particles, and stored at -20° C. until analysis. HPLC was calibrated using a single point 2500 ppm standard solution prepared in […] medium. After thawing, samples were immediately analyzed by HPLC. After remaining in the autosampler overnight, the samples were analyzed again. Agreement was very good between the two methods.

[9] = tested on: E. coli strain 7107-18; assay: Effects of glucosamine and N-acetylglucosamine on growth and survival of E. coli 7107-18; type: cell-based, Escherichia coli
Method: As shown in Example 11, glucosamine is unstable at the regular pH range used for E. coli growth. […] The toxicity was attributed to at least partially to GlcN degradation products in media with a starting pH of 7.0. […] However, low pH levels are known to limit cell growth. Therefore, experiments were conducted in which 7107-18 was grown at pH 7.0, 6.0, 5.5, 5.0 and 4.7. The main objectives were to study cell growth at these lower pHs (with GlcN), and to see if the previously observed cell death caused by GlcN degradation could be reduced at lower pHs.
Cells were inoculated into M9A-glucose (40 g/L) containing 62 g/L N-acetyl glucosamine.

[10] = substrate: O=P(O)(O)OC[C@H]1OC(O)(CO)[C@@H](O)[C@@H]1O; assay: purified protein, by the assay type

E. coli glucosamine synthase GlmS*54, SEQ ID NO:6 (Ala39Thr, Arg250Cys, Gly472Ser), sequence (P17169 whole entry A39T/R250C/G472S): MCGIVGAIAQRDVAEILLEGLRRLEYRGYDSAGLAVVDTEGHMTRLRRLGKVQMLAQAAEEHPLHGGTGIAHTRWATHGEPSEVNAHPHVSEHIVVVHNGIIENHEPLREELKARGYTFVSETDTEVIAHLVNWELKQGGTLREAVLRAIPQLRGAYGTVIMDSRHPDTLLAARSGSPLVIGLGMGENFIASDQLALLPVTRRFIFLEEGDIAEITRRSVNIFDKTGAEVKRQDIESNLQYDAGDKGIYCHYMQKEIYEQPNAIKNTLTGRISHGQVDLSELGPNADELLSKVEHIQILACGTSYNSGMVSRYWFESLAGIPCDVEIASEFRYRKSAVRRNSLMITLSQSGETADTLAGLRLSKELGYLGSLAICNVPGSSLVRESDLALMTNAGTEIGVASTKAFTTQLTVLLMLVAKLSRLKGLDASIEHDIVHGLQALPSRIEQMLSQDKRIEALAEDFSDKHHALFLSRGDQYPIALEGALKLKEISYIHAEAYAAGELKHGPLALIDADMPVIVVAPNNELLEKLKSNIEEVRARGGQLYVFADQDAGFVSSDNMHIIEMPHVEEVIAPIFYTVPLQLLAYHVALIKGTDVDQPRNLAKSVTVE
E. coli GlmS mutant GlmS*69, sequence (P17169 whole entry, change not shown): as the sequence (P17169 whole entry A39T/R250C/G472S) above, with T39A, C250R, S472G counted along it
E. coli GlmS mutant GlmS*110, sequence (P17169 whole entry, stated change not applied): as the sequence (P17169 whole entry A39T/R250C/G472S) above, with T39A, C250R, S472G counted along it

Molecule: O=P(O)(O)OC[C@H]1OC(O)(CO)[C@@H](O)[C@@H]1O (stereo partly drawn) [fructose-6-P, fructose-6-phosphate]
- Km [1]: 410 µM
- Km [2]: 350 µM

Molecule: N[C@H]1[C@@H](OP(=O)(O)O)O[C@H](CO)[C@@H](O)[C@@H]1O [glucosamine-1-P, glucosamine-1-phosphate]
- inhibition of glucosamine synthetase (in words) [3]: inhibited the enzyme at 10 mM

Molecule: N[C@H]1C(O)O[C@H](CO)[C@@H](O)[C@@H]1O (stereo partly drawn) [glucosamine]
- glucosamine degradation based on ammonia formation (in words) [4]: significantly higher with higher acid concentration
- glucosamine degradation ([5]; 20 g/l, 1 N hydrochloric acid, 35, 60 or 100 C, 24 hours): No degradation was observed
- loss of glucosamine ([5]; 90 C, 12% and 16% hydrochloric acid, 90 minutes): No large loss of glucosamine was observed
- glucosamine stability with heating ([5]; pH 1.0 or lower, hydrochloric acid): stable
- glucosamine stability with heating ([5]; pH higher than 1.0): a significant amount of glucosamine was lost
- stability of glucosamine (in words) ([6]; 0-42 g l-1 in cell-free M9A-glucose, pH 6.9, 30 C): unstable
- glucosamine breakdown with versus without 40 g l-1 glucose ([6]; 30 g l-1 glucosamine in M9A medium): No significant difference
- decline of pH in the medium ([6]; 42 g l-1 glucosamine, 24-hr period (6.9 to 6.2)): 0.7 units
- loss of glucosamine ([6]; pH 5.5): 18%
- loss of glucosamine ([6]; pH 7.0): 68%
- glucosamine degradation ([6]; starting 4 g l-1, pH 6.9, 30 C, about 24 hours): about 25%
- glucosamine degradation ([6]; starting 42 g l-1, pH 6.9, 30 C, less than a day): More than half
- growth of freshly inoculated cultures ([7]; 10 and 20 g of glucosamine per liter, medium with 40 g l-1 glucose): slightly inhibited
- toxicity on strain 7107-18 ([7]; 20 g l-1 glucosamine pre-incubated in the medium (pH 7.0) for 3.5 hrs prior to inoculation): Toxicity was observed
- cell growth after inoculation into pre-incubated medium ([7]; 20 g l-1 glucosamine, medium incubated 10 hours before inoculation, pH 7.0 to 4.7): very poor
- cell growth without glucosamine pre-incubation ([7]; 20 g l-1 glucosamine, pH 7.0): good growth
- viable counts relative to inoculation levels ([7]; 35 g l-1 glucosamine): 10^5 fold less than inoculation levels
- cell growth, inoculated immediately ([7]; 35 g l-1 glucosamine in M9A-glucose (40 g l-1)): grew reasonably well
- cell survival in pre-incubated medium ([7]; 35 g l-1 glucosamine, medium pre-incubated as short as 3.5 hours): died rapidly
- viable count after 52 hrs ([7]; 40 g glucosamine per liter): about one-fifth the original number
- cell growth and survival ([7]; 40 g glucosamine per liter, killing after about 16 hours): prevented cell growth and began to kill the cells
- cell survival without medium pre-incubation ([7]; 50 g l-1 glucosamine): Cells died
- glucosamine concentration after storage ([8]; filtered culture samples, -20 C, several weeks): no decrease in glucosamine concentration
- glucosamine concentration after storage ([8]; filtered samples, room temperature, overnight): did not result in any decrease in glucosamine concentration
- viable count relative to original number ([9]; 40 g per liter, after 52 hrs): about one-fifth
- concentration at which toxicity was observed ([9]; pre-incubated in medium (pH 7.0) for 3.5 hrs prior to inoculation): 20000 µg/mL

B1: Bacillus subtilis GlmS, wild type, SEQ ID NO:16 (Bacillus subtilis subsp. subtilis str. 168) (protein)
chain: CGIVGYIGQLDAKEILLKGLEKLEYRGYDSAGIAVANEQGIHVFKEKGRIADLREVVDANVEAKAGIGHTRWATHGEPSYLNAHPHQSALGRFTLVHNGVIENYVQLKQEYLQDVELKSDTDTEVVVQVIEQFVNGGLETEEAFRKTLTLLKGSYAIALFDNDNRETIFVAKNKSPLLVGLGDTFNVVASDAMAMLQVTNEYVELMDKEMVIVTDDQVVIKNLDGDVITRASYIAELDASDIEKGTYPHYMLKETDEQPVVMRKIIQTYQDENGKLSVPGDIAAAVAEADRIYIIGCGTSYHAGLVGKQYIEMWANVPVEVHVASEFSYNMPLLSKKPLFIFLSQSGETADSRAVLVQVKALGHKALTITNVPGSTLSREADYTLLLHAGPEIAVASTKAYTAQIAVLAVLASVAADKNGINIGFDLVKELGIAANAMEALCDQKDEMEMIAREYLTVSRNAFFIGRGLDYFVCVEGALKLKEISYIQAEGFAGGELKHGTIALIEQGTPVFALATQEHVNLSIRGNVKEVAARGANTCIISLKGLDDADDRFVLPEVNPALAPLVSVVPLQLIAYYAALHRGCDVDKPRNLAKSVTVE
- Km [10]: 620 µM
